# According to patent publication US20260042731A1, “(2,4-DICHLOROPHENOXY)ACETIC ACID ANALOGS” (CORTEVA AGRISCIENCE LLC, priority 2022, published 2026):
# Where two headings read alike, the source gives them in different places.
# Key:
# [1] = tested on: Amaranthus rudis (AMATA), tall water hemp; assay: Postemergence herbicide evaluation, growth of Amaranthus rudis (AMATA); type: in vivo; conditions: for pest or weed control at 280 g/ha / pest or weed control at 560 g/ha: Amaranthus tuberculatus, post-emergence, read-out: Ave. AMATA, percent reduction in plant size relative to the untreated control
# [2] = tested on: Ambrosia artemisiifolia (AMBEL), common ragweed; assay: Postemergence herbicide evaluation, growth of Ambrosia artemisiifolia (AMBEL); type: in vivo; conditions: for pest or weed control at 280 g/ha / pest or weed control at 560 g/ha: Ambrosia artemisiifolia, post-emergence, read-out: AVE. AMBEL, percent reduction in plant size relative to the untreated control
# [3] = tested on: Abutilon theophrasti (ABUTH), velvetleaf; assay: Postemergence herbicide evaluation, growth of Abutilon theophrasti (ABUTH); type: in vivo; conditions: for pest or weed control at 280 g/ha / pest or weed control at 560 g/ha: Abutilon theophrasti, post-emergence, read-out: AVE. ABUTH, percent reduction in plant size relative to the untreated control
# [4] = tested on: Chenopodium album (CHEAL), common lambsquarters; assay: Postemergence herbicide evaluation, growth of Chenopodium album (CHEAL); type: in vivo; conditions: for pest or weed control at 280 g/ha / pest or weed control at 560 g/ha: Chenopodium album, post-emergence, read-out: Ave. CHEAL, percent reduction in plant size relative to the untreated control
# [5] = tested on: glyphosate resistant Conyza canadensis (L.) (ERICA), horseweed; assay: Postemergence herbicide evaluation, growth of Conyza canadensis (ERICA); type: in vivo; conditions: for pest or weed control at 280 g/ha / pest or weed control at 560 g/ha: Erigeron canadensis, post-emergence, read-out: Ave. ERICA, percent reduction in plant size relative to the untreated control
# [6] = Volatility of compounds measured by thermogravimetric analysis (TGA); type: physicochemical
# [7] = tested on: weeds ABUTH, AMATA, AMBEL, CHEAL, ERICA; assay: Postemergence herbicide evaluation, overall average % weed control (ABUTH, AMATA, AMBEL, CHEAL, ERICA); type: in vivo; conditions: for pest or weed control at 280 g/ha / pest or weed control at 560 g/ha: post-emergence, read-out: Overall Ave % Weed Control
structure (smiles),measurement,setting,value
"O=C(COc1ccc(Cl)cc1Cl)O/N=C/c1ccccc1 [Compound A2, (E)-benzaldehyde O-(2-(2,4-dichlorophenoxy)acetyl) oxime]",pest or weed control at 280 g/ha,"[1]; 168 h, 280 g ae/ha, 7 DAA",68%
same,pest or weed control at 560 g/ha,"[1]; 168 h, 560 g ae/ha, 7 DAA",75%
same,pest or weed control at 280 g/ha,"[1]; 336 h, 280 g ae/ha, 14 DAA",70%
same,pest or weed control at 560 g/ha,"[1]; 336 h, 560 g ae/ha, 14 DAA",88%
same,pest or weed control at 280 g/ha,"[1]; 504 h, 280 g ae/ha, 21 DAA",73%
same,pest or weed control at 560 g/ha,"[1]; 504 h, 560 g ae/ha, 21 DAA",87%
same,pest or weed control at 280 g/ha,"[2]; 168 h, 280 g ae/ha, 7 DAA",65%
same,pest or weed control at 560 g/ha,"[2]; 168 h, 560 g ae/ha, 7 DAA",73%
same,pest or weed control at 280 g/ha,"[2]; 336 h, 280 g ae/ha, 14 DAA",92%
same,pest or weed control at 560 g/ha,"[2]; 336 h, 560 g ae/ha, 14 DAA",96%
same,pest or weed control at 280 g/ha,"[2]; 504 h, 280 g ae/ha, 21 DAA",91%
same,pest or weed control at 560 g/ha,"[2]; 504 h, 560 g ae/ha, 21 DAA",100%
same,pest or weed control at 280 g/ha,"[3]; 168 h, 280 g ae/ha, 7 DAA",85%
same,pest or weed control at 560 g/ha,"[3]; 168 h, 560 g ae/ha, 7 DAA",85%
same,pest or weed control at 280 g/ha,"[3]; 336 h, 280 g ae/ha, 14 DAA",94%
same,pest or weed control at 560 g/ha,"[3]; 336 h, 560 g ae/ha, 14 DAA",96%
same,pest or weed control at 280 g/ha,"[3]; 504 h, 280 g ae/ha, 21 DAA",98%
same,pest or weed control at 560 g/ha,"[3]; 504 h, 560 g ae/ha, 21 DAA",96%
same,pest or weed control at 280 g/ha,"[4]; 168 h, 280 g ae/ha, 7 DAA",70%
same,pest or weed control at 560 g/ha,"[4]; 168 h, 560 g ae/ha, 7 DAA",73%
same,pest or weed control at 280 g/ha,"[4]; 336 h, 280 g ae/ha, 14 DAA",70%
same,pest or weed control at 560 g/ha,"[4]; 336 h, 560 g ae/ha, 14 DAA",85%
same,pest or weed control at 280 g/ha,"[4]; 504 h, 280 g ae/ha, 21 DAA",73%
same,pest or weed control at 560 g/ha,"[4]; 504 h, 560 g ae/ha, 21 DAA",87%
same,pest or weed control at 280 g/ha,"[5]; 168 h, 280 g ae/ha, 7 DAA",68%
same,pest or weed control at 560 g/ha,"[5]; 168 h, 560 g ae/ha, 7 DAA",73%
same,pest or weed control at 280 g/ha,"[5]; 336 h, 280 g ae/ha, 14 DAA",93%
same,pest or weed control at 560 g/ha,"[5]; 336 h, 560 g ae/ha, 14 DAA",85%
same,pest or weed control at 280 g/ha,"[5]; 504 h, 280 g ae/ha, 21 DAA",90%
same,pest or weed control at 560 g/ha,"[5]; 504 h, 560 g ae/ha, 21 DAA",98%
same,"TGA Data (rate of weight loss, volatility)",[6],0.8 µg/min
same,pest or weed control at 280 g/ha,"[7]; 168 h, 280 g ae/ha, 7 DAA",71%
same,pest or weed control at 560 g/ha,"[7]; 168 h, 560 g ae/ha, 7 DAA",76%
same,pest or weed control at 280 g/ha,"[7]; 336 h, 280 g ae/ha, 14 DAA",84%
same,pest or weed control at 560 g/ha,"[7]; 336 h, 560 g ae/ha, 14 DAA",90%
same,pest or weed control at 280 g/ha,"[7]; 504 h, 280 g ae/ha, 21 DAA",87%
same,pest or weed control at 560 g/ha,"[7]; 504 h, 560 g ae/ha, 21 DAA",93%
O=C(COc1ccc(Cl)cc1Cl)Oc1cncnc1 [Compound E1],"Ave. AMATA, percent reduction in plant size relative to the untreated control","[1]; 280 g ae/ha, 7 DAA",78%
same,"Ave. AMATA, percent reduction in plant size relative to the untreated control","[1]; 280 g ae/ha, 14 DAA",75%
same,"Ave. AMATA, percent reduction in plant size relative to the untreated control","[1]; 280 g ae/ha, 21 DAA",70%
same,"Ave. AMATA, percent reduction in plant size relative to the untreated control","[1]; 560 g ae/ha, 7 DAA",73%
same,"Ave. AMATA, percent reduction in plant size relative to the untreated control","[1]; 560 g ae/ha, 14 DAA",85%
same,"Ave. AMATA, percent reduction in plant size relative to the untreated control","[1]; 560 g ae/ha, 21 DAA",85%
same,"AVE. AMBEL, percent reduction in plant size relative to the untreated control","[2]; 280 g ae/ha, 7 DAA",65%
same,"AVE. AMBEL, percent reduction in plant size relative to the untreated control","[2]; 280 g ae/ha, 14 DAA",96%
same,"AVE. AMBEL, percent reduction in plant size relative to the untreated control","[2]; 280 g ae/ha, 21 DAA",99%
same,"AVE. AMBEL, percent reduction in plant size relative to the untreated control","[2]; 560 g ae/ha, 7 DAA",73%
same,"AVE. AMBEL, percent reduction in plant size relative to the untreated control","[2]; 560 g ae/ha, 14 DAA",90%
same,"AVE. AMBEL, percent reduction in plant size relative to the untreated control","[2]; 560 g ae/ha, 21 DAA",97%
same,"AVE. ABUTH, percent reduction in plant size relative to the untreated control","[3]; 280 g ae/ha, 7 DAA",93%
same,"AVE. ABUTH, percent reduction in plant size relative to the untreated control","[3]; 280 g ae/ha, 14 DAA",96%
same,"AVE. ABUTH, percent reduction in plant size relative to the untreated control","[3]; 280 g ae/ha, 21 DAA",100%
same,"AVE. ABUTH, percent reduction in plant size relative to the untreated control","[3]; 560 g ae/ha, 7 DAA",85%
same,"AVE. ABUTH, percent reduction in plant size relative to the untreated control","[3]; 560 g ae/ha, 14 DAA",97%
same,"AVE. ABUTH, percent reduction in plant size relative to the untreated control","[3]; 560 g ae/ha, 21 DAA",100%
same,"Ave. CHEAL, percent reduction in plant size relative to the untreated control","[4]; 280 g ae/ha, 7 DAA",70%
same,"Ave. CHEAL, percent reduction in plant size relative to the untreated control","[4]; 280 g ae/ha, 14 DAA",73%
same,"Ave. CHEAL, percent reduction in plant size relative to the untreated control","[4]; 280 g ae/ha, 21 DAA",78%
same,"Ave. CHEAL, percent reduction in plant size relative to the untreated control","[4]; 560 g ae/ha, 7 DAA",75%
same,"Ave. CHEAL, percent reduction in plant size relative to the untreated control","[4]; 560 g ae/ha, 14 DAA",90%
same,"Ave. CHEAL, percent reduction in plant size relative to the untreated control","[4]; 560 g ae/ha, 21 DAA",87%
same,"Ave. ERICA, percent reduction in plant size relative to the untreated control","[5]; 280 g ae/ha, 7 DAA",68%
same,"Ave. ERICA, percent reduction in plant size relative to the untreated control","[5]; 280 g ae/ha, 14 DAA",85%
same,"Ave. ERICA, percent reduction in plant size relative to the untreated control","[5]; 280 g ae/ha, 21 DAA",95%
same,"Ave. ERICA, percent reduction in plant size relative to the untreated control","[5]; 560 g ae/ha, 7 DAA",75%
same,"Ave. ERICA, percent reduction in plant size relative to the untreated control","[5]; 560 g ae/ha, 14 DAA",85%
same,"Ave. ERICA, percent reduction in plant size relative to the untreated control","[5]; 560 g ae/ha, 21 DAA",98%
same,"TGA Data (rate of weight loss, volatility)",[6],0.8 µg/min
same,Overall Ave % Weed Control,"[7]; 280 g ae/ha, 7 DAA",75%
same,Overall Ave % Weed Control,"[7]; 280 g ae/ha, 14 DAA",85%
same,Overall Ave % Weed Control,"[7]; 280 g ae/ha, 21 DAA",88%
same,Overall Ave % Weed Control,"[7]; 560 g ae/ha, 7 DAA",76%
same,Overall Ave % Weed Control,"[7]; 560 g ae/ha, 14 DAA",89%
same,Overall Ave % Weed Control,"[7]; 560 g ae/ha, 21 DAA",93%
